pIC50, pKd: −log10 of the molar value. “Also recorded” adds a separate entry of the source.
Experiments:
VEGF = VEGF secretion in tumor cells; type: cell-based
[1] = molecular target: Na^+/K^+-ATPase α peptide isoforms; conditions: four α peptide isoforms, almost all mammalian species; cited from earlier work
[2] = tested on: A549(ROS) tumor cell line; experiment: ROS levels by FACS; type: cell-based, human; conditions: normoxia, 4 hrs
Experimental: (§1) Thirty minutes prior to the termination of incubation period, 2,7-dichlorofluorescin diacetate (CFH-DA, […]) was added to the cells and incubated for the last 30 min at 37° C. The ROS levels were determined by FACS analysis.

[3] = tested on: A549 human non-small-cell-lung carcinoma; experiment: A549 human non-small-cell-lung carcinoma xenograft; type: in vivo, nude mice; conditions: for animals with tumor at the end of the experiment: 8 animals per group; for % Weight Change at Day 38 / Final Tumor weight Day 38 (Mean) / % TGI: Carboplatin 100 mg/kg ip qd×1; for % Weight Change at Day 38 / Final Tumor weight Day 38 (Mean): n=8; for % TGI: Day 38, BNC1 20 mg/ml s.c. C.I.
Experimental: (§2) Female nude mice (nu/nu) between 5 and 6 weeks of age weighing approximately 20 g were implanted subcutaneously (s.c.) by trocar with fragments of human tumors harvested from s.c. grown tumors in nude mice hosts. When the tumors were approximately 60-75 mg in size (about 10-15 days following inoculation), the animals were pair-matched into treatment and control groups. Each group contains 8-10 mice, each of which was ear tagged and followed throughout the experiment.
(§3) The administration of drugs or controls began the day the animals were pair-matched (Day 1). Pumps (Alzet® Model 2002) with a flow rate of 0.5 μl/hr were implanted s.c. between the shoulder blades of each mice. Mice were weighed and tumor measurements were obtained using calipers twice weekly, starting Day 1. These tumor measurements were converted to mg tumor weight by standard formula, (W^2×L)/2. The experiment is terminated when the control group tumor size reached an average of about 1 gram. Upon termination, the mice were weighed, sacrificed and their tumors excised. The tumors were weighed and the mean tumor weight per group was calculated.
Carboplatin (q1d×1) was injected at 100 mg/kg (Carb).

[4] = cited from earlier work; for max. plasma concentration: in vivo
[5] = tested on: Caki-1 human renal cancer xenograft; experiment: Caki-1 human renal cancer xenograft; type: in vivo, nude mice; conditions: for Final Tumor weight Day 22 (Mean): BNC1 20 mg/ml s.c. pump 0.5 μl/hr, n=10; for Final Tumor weight Day 22 (Mean) / % TGI: Cytoxan 100 or 300 ip; for % TGI: Day 22, BNC1 20 mg/ml s.c. C.I.
Experimental: as §2, §3
Cytoxan (q1d×1) was injected at 100 mg/kg (Cyt 100) or 300 mg/kg (Cyt 300).

cancer cell lines = experiment: proliferation of cancer cell lines; type: cell-based; conditions: for decrease of concentration effective for inhibiting proliferation of cancer cells: in combination with a steroid signal modulator (Casodex)
Source text: The concentration at which a cardiac glycoside is effective as part of an antiproliferative treatment may be further decreased by combination with an additional agent that negatively regulates HIF-responsive genes, such as a redox effector or a steroid signal modulator. […] Therefore, in certain embodiments, the invention provides combination therapies of cardiac glycosides with, for example, steroid signal modulators and/or redox effectors. Additionally, cardiac glycosides may be combined with radiation therapy, taking advantage of the radiosensitizing effect that many cardiac glycosides have.

[6] = tested on: Panc-1 human pancreatic tumors; experiment: Panc-1 human pancreatic tumor xenograft; type: in vivo, nude mice; conditions: Gemcitabine 40 mg/kg q3d×4; for Final Tumor weight Day 25 (Mean): BNC1 20 mg/ml s.c. osmotic pump 0.5 μl/hr, n=8; for % TGI: Day 25, BNC1 20 mg/ml s.c. C.I.
Experimental: as §2, §3
The control animals received pumps containing vehicle (50% DMSO in DMEM). The mice treated with standard chemotherapy agent received intra-peritoneal injections of Gemcitabine at 40 mg/kg every 3 days for 4 treatments (q3d×4). Each data point represent average tumor weight (n=8) and error bars indicate SEM.
Gem was also included in the experiment as a comparison.

HIF-1α [7] = experiment: HIF-1α Western blot in tumor cells; type: cell-based, human; conditions: Hep3B, Caki-1 or Panc-1 cells under hypoxia
Experimental: For HIF1-alpha Western blots, Hep3B cells were seeded in growth medium at a density of 7×10^6 cells per 100 mm dish. […] Samples were fractionated on 3-8% Tris-Acetate gel (Invitrogen NUPAGE system) by sodium dodecyl sulfate (SDS)-polyacrylamide gel electropherosis and transferred onto nitrocellulose membrane. […] Anti-Beta-actin monoclonal antibody (Abcam, ab6276-100) was used at a 1:5000 dilution with a 30-minute incubation at room temperature.
The cells were lysed and proteins were resolved by SDS-PAGE and transferred to a nylon membrane.
as §1

[8] = tested on: A549 (NSCLC) Sentinel Line; experiment: Sentinel Line reporter assay (FACS, FDG); type: cell-based, human; conditions: 40 hrs; for cell death / reporter activity: agent alone; for cell death: Sentinel Lines; for reporter activity: mitoxantrone 8 nM, paclitaxel 1.5 nM, carboplatin 15 μM, gemcitabine 2.5 nM, Iressa 4 μM
Experimental: The expression level of beta-galactosidase gene in sentinel lines was determined by using a fluorescent substrate fluorescein di-B-D-Galactopyranside (FDG, Marker Gene Tech, #M0250) introduced into cells by hypotonic shock. Cleavage by beta-galactosidase results in the production of free fluorescein, which is unable to cross the plasma membrane and is trapped inside the beta-gal positive cells. Briefly, the cells to be analyzed are trypsinized, and resuspended in PBS containing 2 mM FDG (diluted from a 10 mM stock prepared in 8:1:1 mixture of water: ethanol: DMSO). The cells were then shocked for 4 minutes at 37° C. and transferred to FACS tubes containing cold 1×PBS on ice. Samples were kept on ice for 30 minutes and analyzed by FACS in FL1 channel.
Sentinel Line cells with beta-galactosidase reporter gene were plated at 1×10^5 cells/10 cm dish. […] After 40 hrs, the cells were trypsinized and the expression level of reporter gene was determined by FDG loading.
In experiments of FIG. 10, the A549 sentinel line was incubated with Gemcitabine in the presence or absence of indicated Bionaut compounds (including the cardiac glycoside compound BNC4) for 40 hrs. The reporter activity was measured by FACS analysis.

HIF-1α [9] = experiment: HIF-1α induced under normoxia by PHD inhibitor L-mimosone, Western blot; type: cell-based, human; conditions: Hep3B cells, 200 μM L-mimosone, 18 h
Experimental: Abundance of HIF1α and β-actin was determined by western blotting.

[10] = tested on: other receptors involved in blood pressure regulation or hormonal control; conditions: Ferrari et al. 1998; cited from earlier work
[11] = molecular target: purified sodium, potassium ATPase enzyme (Na-K ATPase); conditions: read-out: IC50, displaced ouabain from its binding sites; Ferrari et al. 1998; cited from earlier work

Question: What does the source list for `C[C@@H]1O[C@@H](O[C@H]2C[C@@H](O)[C@]3(CO)[C@H]4[C@H](O)C[C@]5(C)[C@@H](C6=CC(=O)OC6)CC[C@]5(O)[C@@H]4CC[C@]3(O)C2)[C@H](O)[C@H](O)[C@H]1O` [BNC1, ouabain]?
Answer: secretion of the angiogenesis factor VEGF (VEGF): inhibits; pKd [1]: ≥ 9.00; ROS production [2]: induces ROS production; animals with tumor at the end of the experiment [3]: none of the experimental animals showed any signs of tumor; anti-tumor activity (in words) ([3]; BNC1 20 mg/ml s.c. pump, Carboplatin 100 mg/kg): potent anti-tumor activity; % Weight Change at Day 38 ([3]; BNC1 20 mg/ml s.c. pump): 21%; Final Tumor weight Day 38 (Mean) ([3]; BNC1 20 mg/ml s.c. pump): 0.0 mg; % TGI [3]: 100.00%; max. plasma concentration [4]: about 0.03 μg/mL; Final Tumor weight Day 22 (Mean) [5]: 314.9 mg; anti-tumor activity (in words) ([5]; BNC1 20 mg/ml s.c. pump, Cytoxan 100 or 300 mg/kg): potent anti-tumor agent when used alone; % TGI [5]: 81.45%; decrease of concentration effective for inhibiting proliferation of cancer cells (cancer cell lines): 5 fold; Final Tumor weight Day 25 (Mean) [6]: 200 mg; tumor growth (in words) ([6]; BNC1 20 mg/ml s.c. pump): significantly reduce tumor growth; % TGI [6]: 82.15%

Question: With `C[C@@H]1O[C@@H](O[C@@H]2C=C3CC[C@@H]4[C@H](CC[C@]5(C)[C@@H](c6ccc(=O)oc6)CC[C@]45O)[C@@]3(C)CC2)[C@H](O)[C@H](O)[C@H]1O` [BNC4, proscillaridin] as the molecule, how does the “secretion of the angiogenesis factor VEGF” value (VEGF) read?
Answer: inhibits

Question: What about the “potency in inhibiting HIF-1α expression relative to BNC1” value (HIF-1α [7]) of the same molecule?
Answer: about 10 times

Question: What about the “Gemcitabine-induced stress response (reporter activity)” value ([8]; incubated with Gemcitabine plus compound) of the same molecule?
Answer: significantly shift the reporter activity to the left

Question: And the “plasma half-life in human” value ([4]; according to the literature)?
Answer: about 40 hours

Question: What about the max. plasma concentration [4] of the same molecule?
Answer: about 0.001 μg/mL

Question: And the “decrease of concentration effective for inhibiting proliferation of cancer cells” value (cancer cell lines)?
Answer: 5 fold

Question: What about the IC50 (cancer cell lines; test system not named at the place, read-out: predicted IC50) of the same molecule?
Answer: 2 to 8 ng/mL

Question: And the “HIF-1α accumulation induced by L-mimosone” value (HIF-1α [9])?
Answer: blocks HIF-1α induction; also recorded: eliminated HIF-1α accumulation

Question: For `N.N.O=C([O-])C1(C(=O)[O-])CCC1.[Pt+2]` [Carboplatin], which cell death [8] is on record?
Answer: increases

Question: What about the reporter activity [8] of the same molecule?
Answer: increases

Question: What about the “animals with tumor at the end of the experiment” value [3] of the same molecule?
Answer: all 8

Question: What about the “% Weight Change at Day 38” value ([3]; BNC1 20 mg/ml s.c. pump) of the same molecule?
Answer: 16%

Question: What about the “Final Tumor weight Day 38 (Mean)” value ([3]; BNC1 20 mg/ml s.c. pump) of the same molecule?
Answer: 509.75 mg

Question: And the “% TGI” value [3]?
Answer: 39.50%

Question: For `O=P1(N(CCCl)CCCl)NCCCO1` (centres unmarked) [Cytoxan], which “Final Tumor weight Day 22 (Mean)” value [5] is on record?
Answer: 769 mg

Question: What about the “Final Tumor weight Day 22 (Mean)” value ([5]; listed as Cytoxan300) of the same molecule?
Answer: 93.7 mg

Question: And the “% TGI” value [5]?
Answer: 54.70%

Question: And the “% TGI” value ([5]; listed as Cytoxan300)?
Answer: 94.48%

Question: For `Nc1ccn([C@@H]2O[C@H](CO)[C@@H](O)C2(F)F)c(=O)n1` [Gemcitabine], which reporter activity [8] is on record?
Answer: elevated reporter activity

Question: What about the “Final Tumor weight Day 25 (Mean)” value [6] of the same molecule?
Answer: 701.3 mg

Question: What about the “% TGI” value [6] of the same molecule?
Answer: 37.40%

Question: For `COc1cc2ncnc(Nc3ccc(F)c(Cl)c3)c2cc1OCCCN1CCOCC1` [Iressa], which reporter activity [8] is on record?
Answer: reduction

Question: For `CC12CCC(O)CC1CCC1C2CCC2(C)C(O)(c3ccoc3)CCC12O` (stereo not drawn) [PST 2238, 17beta-(3-furyl)-5beta-androstane-3beta, 14beta, 17alpha-triol], which “interaction with other receptors” value [10] is on record?
Answer: without interacting

Question: And the pIC50 [11]?
Answer: 5.77

Question: For `O=C1c2c(O)ccc(O)c2C(=O)c2c(NCCNCCO)ccc(NCCNCCO)c21` [mitoxanthrone, mitoxantrone], which cell death [8] is on record?
Answer: increases

Question: And the reporter activity [8]?
Answer: increases

Question: With `CC(=O)O[C@H]1C(=O)[C@@]2(C)[C@H]([C@H](OC(=O)c3ccccc3)[C@]3(O)C[C@H](OC(=O)[C@H](O)[C@@H](NC(=O)c4ccccc4)c4ccccc4)C(C)=C1C3(C)C)[C@]1(OC(C)=O)CO[C@@H]1C[C@@H]2O` [paclitaxel] as the molecule, how does the cell death [8] read?
Answer: increases

Question: And the reporter activity [8]?
Answer: increases

From US20060135443A1, “Use of Na*/K*-ATPase inhibitors and antagonists thereof” (Bionaut Pharmaceuticals, Inc., priority 2004, published 2006)
